# Reference: patent publication US8841382B2, “Hyperbranched polyethers/dendrimers for solubilzation of sparingly soluble active ingredients” (BASF SE, priority 2010, dated 2014)
# Where two headings read alike, the source gives them in different places.
# Assay: Measurement of the solubilization of active ingredients by amphiphiles
# Assay type: physicochemical
# Settings: thermodynamic from solid
# Excerpt: After a rest time of one hour, excess (i.e. unsolubilized) active ingredient was removed by centrifuging. The resulting clear or opaque solution was subsequently analyzed for its active ingredient content by means of UV spectroscopy. The wavelengths of the UV spectroscopy measurement are compiled in table 1.
# [1] = distilled water without polymer, room temperature, stirred 24 h, UV spectroscopy, read-out: Solubility of active ingredient, no polymer (noninventive)
Structure (SMILES),solubility at 24 h [1] [µg/mL],solubility at 24 h (water) [µg/mL]
NC(=O)N1c2ccccc2C=Cc2ccccc21 [Carbamazepine],140,
N#Cc1nn(-c2c(Cl)cc(C(F)(F)F)cc2Cl)c(N)c1[S+]([O-])C(F)(F)F (stereo not shown) [Fipronil],,3
CN1C(C(=O)Nc2ccccn2)=C(O)c2ccccc2S1(=O)=O [Piroxicam],21,
COC(=O)N(OC)c1ccccc1COc1ccn(-c2ccc(Cl)cc2)n1 [Pyraclostrobin],22.5,
